# Patent US20250179066A1, “ZWITTERIONIC ANTIBACTERIAL COMPOUNDS” (Hoffmann-La Roche Inc., priority 2022, published 2025)
# Structures can show the parent of a compound that is named as a salt.
# Tested on: Acinetobacter baumannii ATCC17961
# Assay: Antimicrobial susceptibility testing: 90% growth inhibitory concentration (IC90) determination
# Type: cell-based
# Details: 90% growth inhibitory concentration against Acinetobacter baumannii ATCC17961, Iso-Sensitest broth, OD 600 nm over 16 h; read-out: ATCC 17961 IC90
# Method in brief: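 Twofold serial dilutions (e.g. 10 to 0.0195 μM final) in Iso-Sensitest broth inoculated at ~5×10^5 CFU/mL, incubated at 35±2° C. OD600 read every minute for 16 h; IC90 is the concentration inhibiting 90% of growth during logarithmic phase.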
row,Compound,IC90 [nM]
1,"Cn1c(-c2cn(-c3ccc4c(ccn4CC(N)=O)n3)nc2C(F)(F)F)cnc1C(=O)Nc1ccc(C(=O)N2CCN(C(=O)C3CC[N+](CC(=O)O)(CC4CNC4)CC3)CC2)c(Cl)c1 (stereo not drawn) [Example 199, cis-2-[4-[4-[4-[[5-[1-[1-(2-amino-2-keto-ethyl)pyrrolo[3,2-b]pyridin-5-yl]-3-(trifluoromethyl)pyrazol-4-yl]-1-methyl-imidazole-2-carbonyl]amino]-2-chloro-benzoyl]piperazine-1-carbonyl]-1-(azetidin-3-ylmethyl)piperidin-1-ium-1-yl]acetic acid. 1:1 2,2,2-trifluoroacetate]",308

# Same assay, conditions: Acinetobacter baumannii, ATCC17961, 16 h, 90% growth inhibitory concentration against Acinetobacter baumannii ATCC17961, Iso-Sensitest broth, OD 600 nm over 16 h; read-out: ATCC 17961 IC90
row,Compound,IC90 [nM]
1,"COCCNc1ccc(-n2cc(-c3cnc(C(=O)Nc4ccc(C(=O)N5CCN(C(=O)[C@H]6CC[N@+](CC(=O)O)(CC7CNC7)CC6)CC5)c(Cl)c4)n3C)c(C(F)(F)F)n2)c(F)c1 [Example 185, cis-2-[1-(azetidin-3-ylmethyl)-4-[4-[2-chloro-4-[[5-[1-[2-fluoro-4-(2-methoxyethylamino)phenyl]-3-(trifluoromethyl)pyrazol-4-yl]-1-methyl-imidazole-2-carbonyl]amino]benzoyl]piperazine-1-carbonyl]piperidin-1-ium-1-yl]acetic acid. 1:1 2,2,2-trifluoroacetate]",196
2,"Cn1c(-c2cn(-c3ccc(NCCCN)cc3F)nc2C(F)(F)F)cnc1C(=O)Nc1ccc(C(=O)N2CCN(C(=O)[C@H]3CC[N@+](CC(=O)O)(CC4CNC4)CC3)CC2)c(Cl)c1 [Example 186, cis-2-[4-[4-[4-[[5-[1-[4-(3-aminopropylamino)-2-fluoro-phenyl]-3-(trifluoromethyl)pyrazol-4-yl]-1-methyl-imidazole-2-carbonyl]amino]-2-chloro-benzoyl]piperazine-1-carbonyl]-1-(azetidin-3-ylmethyl)piperidin-1-ium-1-yl]acetic Acid.1:1 formate]",160
3,"CN(C)CC[N@+]1(CC(=O)O)CC[C@H](C(=O)N2CCN(C(=O)c3ccc(NC(=O)c4ncc(-c5cn(-c6ccc(N)cc6F)nc5C(F)(F)F)n4C)cc3Cl)CC2)CC1 [Example 187, trans-2-[4-[4-[4-[[5-[1-(4-amino-2-fluoro-phenyl)-3-(trifluoromethyl)pyrazol-4-yl]-1-methyl-imidazole-2-carbonyl]amino]-2-chloro-benzoyl]piperazine-1-carbonyl]-1-[2-(dimethylamino)ethyl]piperidin-1-ium-1-yl]acetic acid;2,2,2-trifluoroacetate]",745
4,"CN(C)CC[N@+]1(CC(=O)O)CC[C@@H](C(=O)N2CCN(C(=O)c3ccc(NC(=O)c4ncc(-c5cn(-c6ccc(N)cc6F)nc5C(F)(F)F)n4C)cc3Cl)CC2)CC1 [Example 188, cis-2-[4-[4-[4-[[5-[1-(4-amino-2-fluoro-phenyl)-3-(trifluoromethyl)pyrazol-4-yl]-1-methyl-imidazole-2-carbonyl]amino]-2-chloro-benzoyl]piperazine-1-carbonyl]-1-[2-(dimethylamino)ethyl]piperidin-1-ium-1-yl]acetic acid;2,2,2-trifluoroacetate]",540
5,"Cn1c(-c2cn(-c3cc4[nH]c(CN)cc4cn3)nc2C(F)(F)F)cnc1C(=O)Nc1ccc(C(=O)N2CCN(C(=O)[C@H]3CC[N@+](CC(=O)O)(CC4CNC4)CC3)CC2)c(Cl)c1 [Example 189, cis-2-[4-[4-[4-[[5-[1-[2-(aminomethyl)-1H-pyrrolo[3,2-c]pyridin-6-yl]-3-(trifluoromethyl)pyrazol-4-yl]-1-methyl-imidazole-2-carbonyl]amino]-2-chloro-benzoyl]piperazine-1-carbonyl]-1-(azetidin-3-ylmethyl)piperidin-1-ium-1-yl]acetic acid;formic acid;formate]",53.2
6,"Cn1c(-c2cn(-c3ccc4c(ccn4CCN)n3)nc2C(F)(F)F)cnc1C(=O)Nc1ccc(C(=O)N2CCN(C(=O)[C@H]3CC[N@+](CC(=O)O)(CC4CNC4)CC3)CC2)c(Cl)c1 [Example 190, cis-2-[4-[4-[4-[[5-[1-[1-(2-aminoethyl)pyrrolo[3,2-b]pyridin-5-yl]-3-(trifluoromethyl)pyrazol-4-yl]-1-methyl-imidazole-2-carbonyl]amino]-2-chloro-benzoyl]piperazine-1-carbonyl]-1-(azetidin-3-ylmethyl)piperidin-1-ium-1-yl]acetic acid. 1:1 hydrogen chloride. 1:1 chloride]",199
7,"Cn1c(-c2cn(-c3cc4cc(CO)[nH]c4cn3)nc2C(F)(F)F)cnc1C(=O)Nc1ccc(C(=O)N2CCN(C(=O)[C@H]3CC[N@+](CC(=O)O)(CC4CNC4)CC3)CC2)c(Cl)c1 [Example 191, cis-2-[1-(azetidin-3-ylmethyl)-4-[4-[2-chloro-4-[[1-methyl-5-[1-(2-methylol-1H-pyrrolo[2,3-c]pyridin-5-yl)-3-(trifluoromethyl)pyrazol-4-yl]imidazole-2-carbonyl]amino]benzoyl]piperazine-1-carbonyl]piperidin-1-ium-1-yl]acetic acid. 1:1 2,2,2-trifluoroacetic acid]",315
8,"Cn1c(-c2cn(-c3cccc(N)n3)nc2C(F)(F)F)cnc1C(=O)Nc1ccc(C(=O)N2CCN(C(=O)[C@H]3CC[N@+](CC(=O)O)(CC4CNC4)CC3)CC2)c(Cl)c1 [Example 192, cis-2-[4-[4-[4-[[5-[1-(6-amino-2-pyridyl)-3-(trifluoromethyl)pyrazol-4-yl]-1-methyl-imidazole-2-carbonyl]amino]-2-chloro-benzoyl]piperazine-1-carbonyl]-1-(azetidin-3-ylmethyl)piperidin-1-ium-1-yl]acetic acid. 1:1 2,2,2-trifluoroacetate]",265
9,"Cn1c(-c2cn(-c3ccc(N)cc3F)nc2C(F)(F)F)cnc1C(=O)Nc1ccc(C(=O)N2CCN(C(=O)C3CC[N+](C)(CC(=O)O)CC3)CC2)c(Cl)c1 (stereo not shown) [Example 193, 2-[4-[4-[4-[[5-[1-(4-amino-2-fluoro-phenyl)-3-(trifluoromethyl)pyrazol-4-yl]-1-methyl-imidazole-2-carbonyl]amino]-2-chloro-benzoyl]piperazine-1-carbonyl]-1-methyl-piperidin-1-ium-1-yl]acetic acid;iodide]",371
10,"Cn1c(-c2cn(-c3cc4[nH]cc(CCO)c4cn3)nc2C(F)(F)F)cnc1C(=O)Nc1ccc(C(=O)N2CCN(C(=O)[C@H]3CC[N@+](CC(=O)O)(CC4CNC4)CC3)CC2)c(Cl)c1 [Example 194, cis-2-[1-(azetidin-3-ylmethyl)-4-[4-[2-chloro-4-[[5-[1-[3-(2-hydroxyethyl)-1H-pyrrolo[3,2-c]pyridin-6-yl]-3-(trifluoromethyl)pyrazol-4-yl]-1-methyl-imidazole-2-carbonyl]amino]benzoyl]piperazine-1-carbonyl]piperidin-1-ium-1-yl]acetic acid. 1:1 2,2,2-trifluoroacetate]",168
11,"Cn1c(-c2cn(-c3ccc(N)cc3F)nc2C(F)(F)F)cnc1C(=O)Nc1ccc(C(=O)N2CCN(C(=O)CCC[N+](C)(CC(=O)[O-])CC3CNC3)CC2)c(Cl)c1 (stereo not shown) [Example 195, 2-[[4-[4-[4-[[5-[1-(4-amino-2-fluoro-phenyl)-3-(trifluoromethyl)pyrazol-4-yl]-1-methyl-imidazole-2-carbonyl]amino]-2-chloro-benzoyl]piperazin-1-yl]-4-oxo-butyl]-(azetidin-3-ylmethyl)-methyl-ammonio]acetate]",330
12,"Cn1c(-c2cn(-c3ccc(N(CCN)CCN)cn3)nc2C(F)(F)F)cnc1C(=O)Nc1ccc(C(=O)N2CCN(C(=O)[C@H]3CC[N@+](CC(=O)O)(CC4CNC4)CC3)CC2)c(Cl)c1 [Example 196, cis-2-[1-(azetidin-3-ylmethyl)-4-[4-[4-[[5-[1-[5-[bis(2-aminoethyl)amino]-2-pyridyl]-3-(trifluoromethyl)pyrazol-4-yl]-1-methyl-imidazole-2-carbonyl]amino]-2-chloro-benzoyl]piperazine-1-carbonyl]piperidin-1-ium-1-yl]acetic acid;formic acid;formate]",185
13,"Cn1c(-c2cn(-c3ccc4c(ccn4CC#N)n3)nc2C(F)(F)F)cnc1C(=O)Nc1ccc(C(=O)N2CCN(C(=O)[C@H]3CC[N@+](CC(=O)O)(CC4CNC4)CC3)CC2)c(Cl)c1 [Example 197, cis-2-[1-(azetidin-3-ylmethyl)-4-[4-[2-chloro-4-[[5-[1-[1-(cyanomethyl)pyrrolo[3,2-b]pyridin-5-yl]-3-(trifluoromethyl)pyrazol-4-yl]-1-methyl-imidazole-2-carbonyl]amino]benzoyl]piperazine-1-carbonyl]piperidin-1-ium-1-yl]acetic acid. 1:1 2,2,2-trifluoroacetate]",171
14,"Cn1c(-c2cn(-c3ccc4c(ccn4CCO)n3)nc2C(F)(F)F)cnc1C(=O)Nc1ccc(C(=O)N2CCN(C(=O)[C@H]3CC[N@+](CC(=O)O)(CC4CNC4)CC3)CC2)c(Cl)c1 [Example 198, cis-2-[1-(azetidin-3-ylmethyl)-4-[4-[2-chloro-4-[[5-[1-[1-(2-hydroxyethyl)pyrrolo[3,2-b]pyridin-5-yl]-3-(trifluoromethyl)pyrazol-4-yl]-1-methyl-imidazole-2-carbonyl]amino]benzoyl]piperazine-1-carbonyl]piperidin-1-ium-1-yl]acetic acid. 1:1 2,2,2-trifluoroacetate]",370
15,"Cn1c(-c2cn(-c3cc4cc[nH]c4cn3)nc2C(F)(F)F)cnc1C(=O)Nc1ccc(C(=O)N2CCN(C(=O)[C@H]3CC[N@+](CC(=O)O)(CC4CNC4)CC3)CC2)c(Cl)c1 [Example 200, cis-2-[1-(azetidin-3-ylmethyl)-4-[4-[2-chloro-4-[[1-methyl-5-[1-(1H-pyrrolo[2,3-c]pyridin-5-yl)-3-(trifluoromethyl)pyrazol-4-yl]imidazole-2-carbonyl]amino]benzoyl]piperazine-1-carbonyl]piperidin-1-ium-1-yl]acetic acid. 1:1 2,2,2-trifluoroacetate]",400
